From ChEMBL document CHEMBL4825780 (ACS Med Chem Lett, 2021) come the findings set out here.

The IC50 is the midpoint of a concentration-inhibition curve. The half-life is the time needed for the level to fall by half in the phase considered. The Cmax is the maximum level reached in the sampled fluid or tissue. One may read the AUC as the area under the concentration-time curve, a measure of exposure. High values mean high exposure, low ones low exposure. As usually defined, the bioavailability is dose-corrected exposure relative to a reference, in per cent.

Activity calls are given as the source filed them.

Data set [1] concerns the target Cyclin-C/Cyclin-dependent kinase 19 (Homo sapiens, UniProt Q9BWU1). The data set can be described thus: Inhibition of tracer 236 binding to recombinant human GST/His-tagged CDK11 (1 to 502 residues)/Cyclin C( 1 to 283 residues) expressed in insect cells by Lanthascreen assay. (In TR-FRET formats the signal depends on donor and acceptor labels being close together.)

In another data set the target is CDK8/Cyclin C (Homo sapiens, UniProt P49336). Nature of the data set: Inhibition of tracer 236 binding to recombinant human His-tagged full length CDK8/Cyclin C expressed in baculovirus expression system by Lanthascreen assay.
Sequence of CDK8/Cyclin C (P49336 whole entry): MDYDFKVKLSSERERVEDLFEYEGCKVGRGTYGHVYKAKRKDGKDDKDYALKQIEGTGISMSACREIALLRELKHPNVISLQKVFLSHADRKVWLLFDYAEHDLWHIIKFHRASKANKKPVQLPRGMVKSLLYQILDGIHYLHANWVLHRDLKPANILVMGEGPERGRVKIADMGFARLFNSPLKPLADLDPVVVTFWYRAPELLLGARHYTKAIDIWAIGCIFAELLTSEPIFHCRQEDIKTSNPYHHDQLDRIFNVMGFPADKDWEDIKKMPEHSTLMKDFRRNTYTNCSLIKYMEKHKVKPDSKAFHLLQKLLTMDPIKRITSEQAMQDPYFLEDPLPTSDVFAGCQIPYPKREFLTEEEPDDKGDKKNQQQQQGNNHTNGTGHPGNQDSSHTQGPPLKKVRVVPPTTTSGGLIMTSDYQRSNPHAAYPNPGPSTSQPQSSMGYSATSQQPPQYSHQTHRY
Sequence of CDK8/Cyclin C (P24863 whole entry, further chain): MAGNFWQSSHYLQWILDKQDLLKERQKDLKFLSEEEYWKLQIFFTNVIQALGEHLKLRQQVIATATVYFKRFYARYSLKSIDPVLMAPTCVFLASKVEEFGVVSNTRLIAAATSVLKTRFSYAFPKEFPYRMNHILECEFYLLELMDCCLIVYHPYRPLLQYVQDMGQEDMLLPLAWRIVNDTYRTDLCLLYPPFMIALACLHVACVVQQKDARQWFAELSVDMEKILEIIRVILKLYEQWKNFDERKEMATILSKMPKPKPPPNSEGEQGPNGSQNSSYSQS
Data set [2] addresses Cyclin-dependent kinase 8 (Homo sapiens, UniProt P49336).
Description: Inhibition of human CDK8 in human Jurkat cells assessed as inhibition of STAT1 phosphorylation at S727 residue measured after 24 hrs by Western blot assay
Data set [3] can be described thus: Metabolic stability in mouse hepatocytes assessed as half life. Type of data set: ADME, cell-based, Hepatocyte.
A short description of data set [4]: Metabolic stability in mouse hepatocytes assessed as intrinsic clearance. Type of data set: ADME, cell-based, Hepatocyte.
For data set [5], the target named is T1, Serine/threonine-protein kinase 16 (Homo sapiens, UniProt O75716). Nature of the data set: Inhibition of human wild type partial length STK16 (G11 to I305 residues) expressed in bacterial expression system at 1 uM measured by Kinomescan method.
T1 sequence (O75716 whole entry, the tested form may be a part): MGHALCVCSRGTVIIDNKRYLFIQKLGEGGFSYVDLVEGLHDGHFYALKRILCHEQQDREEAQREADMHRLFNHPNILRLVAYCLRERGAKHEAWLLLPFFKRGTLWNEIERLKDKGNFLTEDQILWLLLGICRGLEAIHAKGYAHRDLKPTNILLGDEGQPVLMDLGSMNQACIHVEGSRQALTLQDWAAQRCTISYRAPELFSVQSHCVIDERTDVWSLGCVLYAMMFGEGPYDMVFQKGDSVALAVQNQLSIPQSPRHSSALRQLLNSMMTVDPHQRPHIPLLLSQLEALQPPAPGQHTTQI
Data set [6] deals with T2, Receptor-type tyrosine-protein kinase FLT3 (Homo sapiens), P36888 [D835V].
T2 sequence (whole entry): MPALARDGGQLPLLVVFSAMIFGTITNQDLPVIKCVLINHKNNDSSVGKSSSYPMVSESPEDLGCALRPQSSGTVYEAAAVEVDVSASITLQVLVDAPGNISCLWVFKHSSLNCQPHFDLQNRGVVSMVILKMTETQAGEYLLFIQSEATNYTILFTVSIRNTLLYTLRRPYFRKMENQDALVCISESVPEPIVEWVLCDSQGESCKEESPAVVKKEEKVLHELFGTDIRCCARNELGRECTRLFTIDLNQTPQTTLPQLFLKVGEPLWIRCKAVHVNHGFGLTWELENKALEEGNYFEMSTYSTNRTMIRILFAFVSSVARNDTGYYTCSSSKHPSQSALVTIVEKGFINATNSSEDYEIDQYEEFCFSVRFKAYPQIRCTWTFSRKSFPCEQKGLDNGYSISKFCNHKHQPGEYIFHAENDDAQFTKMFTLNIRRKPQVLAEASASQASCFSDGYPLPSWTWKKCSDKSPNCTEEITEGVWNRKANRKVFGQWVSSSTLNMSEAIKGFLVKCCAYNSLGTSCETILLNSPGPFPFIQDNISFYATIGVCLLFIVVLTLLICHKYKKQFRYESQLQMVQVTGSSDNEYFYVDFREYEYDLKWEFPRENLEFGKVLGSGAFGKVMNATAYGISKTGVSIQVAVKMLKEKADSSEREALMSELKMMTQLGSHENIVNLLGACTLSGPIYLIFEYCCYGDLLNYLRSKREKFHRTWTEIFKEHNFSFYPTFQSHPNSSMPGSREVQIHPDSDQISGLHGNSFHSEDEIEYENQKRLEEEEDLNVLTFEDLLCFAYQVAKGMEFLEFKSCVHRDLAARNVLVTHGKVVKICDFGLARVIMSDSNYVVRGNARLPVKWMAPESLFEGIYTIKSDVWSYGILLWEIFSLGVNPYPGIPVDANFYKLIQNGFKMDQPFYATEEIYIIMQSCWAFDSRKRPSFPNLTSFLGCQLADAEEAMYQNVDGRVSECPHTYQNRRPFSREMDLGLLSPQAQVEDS
Nature of the data set: Inhibition of human partial length FLT3 […] mutant (V592 to Y969 residues) expressed in mammalian expression system at 1 uM measured by Kinomescan method.

In data set [7] the target is T1, Serine/threonine-protein kinase 16. The data set can be described thus: Inhibition of human wild type partial length STK16 (G11 to I305) expressed in bacterial expression system by Kinomescan method.
The nature of data set [8]: Cmax in C57Bl/6 mouse at 10 mg/kg, po. The conditions noted are these: in vivo. Type of data set: ADME, organism-based. Also on record: route oral, dose 10 mg/kg.
Data set [9] can be described thus: AUC in C57Bl/6 mouse at 10 mg/kg, po. The format is ADME, organism-based. Also noted: dose 10 mg/kg. The conditions noted are these: in vivo.
A short description of data set [10]: Half life in C57Bl/6 mouse at 10 mg/kg, po. Type of data set: ADME, organism-based. The conditions noted are these: in vivo.
Data set [11] can be described thus: Clearance in C57Bl/6 mouse at 10 mg/kg, po or 2 mg/kg, iv. Type of data set: ADME, organism-based. The conditions noted are these: in vivo.
The nature of data set [12]: Volume of distribution at steady state in C57Bl/6 mouse at 10 mg/kg, po or 2 mg/kg, iv. The conditions noted are these: in vivo, read-out: Vdss. Type of data set: ADME, organism-based.
Data set [13] is described as follows: Oral bioavailability in C57Bl/6 mouse at 10 mg/kg. Type of data set: ADME, organism-based. The conditions noted are these: in vivo.

Sequence of Cyclin-C/Cyclin-dependent kinase 19 (Q9BWU1 whole entry, the tested form may be a part): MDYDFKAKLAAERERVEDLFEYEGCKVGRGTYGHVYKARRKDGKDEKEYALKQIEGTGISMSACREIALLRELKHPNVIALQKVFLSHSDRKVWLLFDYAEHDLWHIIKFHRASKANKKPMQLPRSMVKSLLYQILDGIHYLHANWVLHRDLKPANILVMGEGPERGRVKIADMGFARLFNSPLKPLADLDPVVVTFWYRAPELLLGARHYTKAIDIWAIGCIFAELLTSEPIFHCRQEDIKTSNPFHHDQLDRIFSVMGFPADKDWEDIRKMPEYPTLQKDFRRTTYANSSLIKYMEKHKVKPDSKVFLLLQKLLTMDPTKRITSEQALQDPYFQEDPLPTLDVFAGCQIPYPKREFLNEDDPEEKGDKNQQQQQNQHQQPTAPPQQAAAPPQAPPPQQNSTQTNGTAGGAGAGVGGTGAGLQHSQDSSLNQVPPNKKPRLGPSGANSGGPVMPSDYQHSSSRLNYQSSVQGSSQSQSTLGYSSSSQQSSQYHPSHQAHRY
Sequence of Cyclin-C/Cyclin-dependent kinase 19 (P24863 whole entry, further chain, the tested form may be a part): as the sequence (P24863 whole entry, further chain) above
Sequence of Cyclin-dependent kinase 8 (P49336 whole entry): as the sequence (P49336 whole entry) above

On to `Cn1ncc2cc(-c3cnc4[nH]ccc4c3N3CCC4(CCCNC4=O)CC3)ccc21`, for which the IC50 in [1] was 0.003 µM.
On to `Cn1ncc2cc(-c3cnc4[nH]ccc4c3N3CCC4(CC3)NC(=O)NC4=O)ccc21`, for which the IC50 in data set [1] is 0.002 µM.
In the case of `Cn1cnc2cc(-c3cnc4[nH]ccc4c3N3CCC4(CCNC4=O)CC3)ccc21`, the IC50 was found to be 0.032 µM on CDK8/Cyclin C and 0.05 µM in data set [1].
For `Cc1n[nH]c2ncc(C(=O)N3CCC[C@H]3c3ccc(Cl)cc3)cc12`, in data set [2], the 50% inhibitory concentration (IC50) was found to be 0.003 µM.
Consider `O=C1NCCC12CCN(c1c(-c3ccn4ccnc4c3)cnc3[nH]ccc13)CC2`, for which the concentration for half-maximal inhibition (IC50) at CDK8/Cyclin C worked out at 0.076 µM; in data set [1] it was 0.068 µM.
Regarding `Cn1ncc2cc(-c3cnc4[nH]cnc4c3N3CCC4(CCNC4=O)CC3)ccc21`, the IC50 is 0.01 µM on CDK8/Cyclin C and 0.005 µM in [1]. Further, the half-life in data set [3] came out at 5 min. In data set [4], the “intrinsic clearance (CLint)” value is 158 µL/min/mg.
Consider `Cn1ncc2cc(-c3cnc4[nH]nc(Cl)c4c3N3CCC4(CCNC4=O)CC3)ccc21`, for which the half-maximal inhibitory concentration (IC50) was 0.001 µM at CDK8/Cyclin C, 0.002 µM in data set [1], 0.107 µM in [7] and 0.002 µM in data set [2]. Moreover, the inhibition entry in data set [5] and in [6] was “Active” each time. Further, the half-life is 46 min in data set [3] and 78 min in data set [10]. In data set [4], the “intrinsic clearance (CLint)” value was 15 µL/min/mg. Besides, the Cmax in data set [8] stood at 0.104 µg/mL. The molecule further gave an AUC in data set [9] of 0.864 µg·h/mL. This molecule registered a clearance in [11] of 1.02 L/h/kg. In addition, the Vd in data set [12] came to 0.8 L/kg. Besides, the bioavailability in data set [13] worked out at 8%.
As to `Cn1ncc2cc(-c3cnc4[nH]ccc4c3N3CCC4(CC3)CNC4=O)ccc21`, the half-inhibitory concentration (IC50) (on CDK8/Cyclin C; in [1]) was 0.006 µM each time.
As for `Cn1ncc2cc(-c3cnc4[nH]ccc4c3N3CCC4(CCNC4=O)C3)ccc21` (stereo not drawn), the IC50 came to 0.055 µM at CDK8/Cyclin C and 0.029 µM in [1].
For the molecule `O=C1NCCC12CCN(c1c(-c3ccc4[nH]cnc4c3)cnc3[nH]ccc13)CC2`, the IC50 at CDK8/Cyclin C came out at 0.005 µM; in data set [1], 0.017 µM.
As to `Cn1ncc2cc(-c3cnc4[nH]ccc4c3N3CCC4(CCNC4=O)CC3)ccc21`, the half-life in data set [3] came out at 9 min. The “intrinsic clearance (CLint)” value in data set [4] was 78 µL/min/mg.
In the case of `Cn1ncc2cc(-c3cnc4[nH]ccc4c3N3CC4(CCNC4=O)C3)ccc21`, the concentration for half-maximal inhibition (IC50) on CDK8/Cyclin C came to 0.538 µM; in [1], 0.426 µM.
`O=C1NCCC12CCN(c1c(-c3ccc4scnc4c3)cnc3[nH]ccc13)CC2`: the IC50 on CDK8/Cyclin C amounted to 0.006 µM; in data set [1], 0.014 µM.
For the molecule `Cn1ncc2cc(-c3cnc4[nH]ccc4c3N3CCC4(CC3)CNC(=O)O4)ccc21`, the 50% inhibitory concentration (IC50) is 0.007 µM at CDK8/Cyclin C and 0.006 µM in data set [1].
With `O=C1NCCC12CCN(c1c(-c3ccc4ncnn4c3)cnc3[nH]ccc13)CC2`, the values for the 50% inhibitory concentration (IC50) (on CDK8/Cyclin C; in data set [1]) were 0.274 µM and 1.02 µM, respectively.
Take `Cn1ncc2cc(-c3cnc4[nH]ncc4c3N3CCC4(CCNC4=O)CC3)ccc21`: the results for the IC50 (at CDK8/Cyclin C; in data set [1]) were 0.178 µM and 0.214 µM, respectively. For the same molecule, in data set [3], the half-life was determined as 11 min. Also, the “intrinsic clearance (CLint)” value in [4] is 59 µL/min/mg.
Consider `Cn1ncc2cc(-c3cnc4[nH]cc(Cl)c4c3N3CCC4(CCNC4=O)CC3)ccc21`, for which the IC50 worked out at 0.002 µM on CDK8/Cyclin C and 0.01 µM in data set [1]. In addition, the half-life in data set [3] was 11 min. Moreover, the “intrinsic clearance (CLint)” value in data set [4] was 64 µL/min/mg.
In the case of `Cn1ncc2cc(-c3cnc4[nH]ccc4c3N3CC4(CNC(=O)C4)C3)ccc21`, the IC50 at CDK8/Cyclin C amounted to 0.916 µM; in data set [1] it was 0.698 µM.
For the molecule `O=C1NCCC12CCN(c1c(-c3ccc4ncsc4c3)cnc3[nH]ccc13)CC2`, the half-inhibitory concentration (IC50) at CDK8/Cyclin C was found to be 0.025 µM; in [1], 0.08 µM.
